Test results reported in article PMC11556746, “Anchorage of bacterial effector at plasma membrane via selective phosphatidic acid binding to modulate host cell signaling” (PLOS Pathogens, 2024).

Molecular target: T1, BepE-BID1 (Bartonella henselae, UniProt A0A0R4J6H0)
T1 construct: gene BH13420; first BID domain (BID1) of BepE, His-tagged, expressed in E. coli, Ni-NTA
Experiment: metasurface plasmon resonance (SPR), immobilised protein
Format: binding
Details: lipid presented in liposomes (PC:POPA, 90% PC and 10% POPA); HBS-ET buffer

T1 sequence (A0A0R4J6H0 entry or part of it): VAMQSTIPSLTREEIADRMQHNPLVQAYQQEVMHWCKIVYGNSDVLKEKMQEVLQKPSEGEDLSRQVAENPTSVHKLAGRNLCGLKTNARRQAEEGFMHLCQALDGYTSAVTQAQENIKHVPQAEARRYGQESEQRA

`CCCCCCCC/C=C\CCCCCCCC(=O)O[C@H](COC(=O)CCCCCCCCCCCCCCC)COP(=O)(O)O` [POPA] was tested. Which Kd did it give?
Its Kd is ~349 nM.
